Test results taken from patent EP0019589A1, “Tripeptide derivatives and their use in a process for determining enzymes” (Pentapharm A.G., priority 1979, dated 1980).
Non-standard residues stand in square brackets, D forms with d. Residues, ends and D or L forms follow the SMILES beside them. *: point of attachment. Cha = N[C@@H](CC1CCCCC1)C(=O)O; dCha = N[C@H](CC1CCCCC1)C(=O)O; dChg = N[C@@H](C(=O)O)C1CCCCC1; pNA = O=[N+]([O-])c1ccc(N*)cc1; dNle = CCCC[C@@H](N)C(=O)O

Legend:
Type in all cases: biochemical
Humanthrombin = target: T1, Humanthrombin (Homo sapiens, UniProt P00734); assay: Cleavage of chromogenic substrate by human NIH thrombin; conditions: 1 NIH-Einheit human thrombin, per min; Substratkonzentration 2 x 10^-4 molar
T1 construct: Humanplasmin und hu-manem NIH-Thrombin
In short: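 Thrombin hydrolysis of chromogenic p-nitroanilide substrate read spectrophotometrically at 405 nm; fluorogenic naphthylamine, methylcoumarylamine or di(methoxycarbonyl)phenylamine substrates read continuously by fluorescence emission at 400-470 nm. Activity taken as product formed per unit time; 1 µmol product/min defined as 1 enzyme unit for a given substrate.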

Urinkallikrein = target: T2, Urinkallikrein (Homo sapiens, UniProt P06870); assay: Cleavage of chromogenic substrate by urinary kallikrein in human urine; conditions: 1 ml human urine (pooled morning urine of healthy persons), per min; Substratkonzentration 2 x 10^-4 molar
T2 construct: 1 ml Urin und 1 ml TRIS-Imidazol-Puffer mit pH 7,9; from tissue; host or cells: human urine

Humanplasmin = target: T3, Humanplasmin (Homo sapiens, UniProt P00747); assay: Cleavage of chromogenic substrate by human plasmin; conditions: 1 CU-Einheit human plasmin, per min; Substratkonzentration 2 x 10^-4 molar
T3 construct: da bei der Aktivierung aus 1 Molekül Plasminogen 1 Molekül Plasmin entsteht

[1] = target: T4, Submandibularis-Kallikrein (Homo sapiens, UniProt P06870); assay: Cleavage of chromogenic substrate by submandibular (glandular) kallikrein in human sputum; conditions: 1 ml human sputum, per min; Substratkonzentration 2 x 10^-4 molar
T4 construct: Man mischt 0,5 ml Sputum mit 2 ml TRIS-Imidazol-Puffer; from tissue; host or cells: human sputum
In short: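 Sputum mixed with TRIS-imidazole buffer (ionic strength 1.0), preincubated 5 min at 37°C and centrifuged; supernatant incubated with aqueous substrate solution (2 x 10^-3 M, stock). p-Nitroaniline release followed continuously at 405 nm for 5-10 min; activity expressed as mU per ml sputum from ΔOD/min.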

T3 sequence (P00747 581-810 limits assumed): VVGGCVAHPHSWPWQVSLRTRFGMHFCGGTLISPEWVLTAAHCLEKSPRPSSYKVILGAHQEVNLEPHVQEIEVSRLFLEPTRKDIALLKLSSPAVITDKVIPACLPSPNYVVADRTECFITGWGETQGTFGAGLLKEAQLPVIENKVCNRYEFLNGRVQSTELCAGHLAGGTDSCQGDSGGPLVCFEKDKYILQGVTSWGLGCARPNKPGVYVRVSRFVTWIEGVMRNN
T3 sequence (P00747 97-580 partner limits assumed): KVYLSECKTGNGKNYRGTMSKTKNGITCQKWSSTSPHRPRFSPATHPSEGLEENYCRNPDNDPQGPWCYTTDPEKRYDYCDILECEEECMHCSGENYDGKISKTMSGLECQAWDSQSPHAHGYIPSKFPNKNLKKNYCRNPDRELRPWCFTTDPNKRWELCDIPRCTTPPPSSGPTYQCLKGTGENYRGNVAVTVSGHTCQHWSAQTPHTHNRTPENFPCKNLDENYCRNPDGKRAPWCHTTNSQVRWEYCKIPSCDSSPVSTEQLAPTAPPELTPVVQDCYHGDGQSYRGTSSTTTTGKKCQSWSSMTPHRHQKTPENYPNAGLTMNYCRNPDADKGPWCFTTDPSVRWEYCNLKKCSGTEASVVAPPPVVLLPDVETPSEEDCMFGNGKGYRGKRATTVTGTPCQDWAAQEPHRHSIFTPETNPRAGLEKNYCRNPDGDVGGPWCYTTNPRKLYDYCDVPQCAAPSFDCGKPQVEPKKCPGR
T2 sequence (P06870 25-262): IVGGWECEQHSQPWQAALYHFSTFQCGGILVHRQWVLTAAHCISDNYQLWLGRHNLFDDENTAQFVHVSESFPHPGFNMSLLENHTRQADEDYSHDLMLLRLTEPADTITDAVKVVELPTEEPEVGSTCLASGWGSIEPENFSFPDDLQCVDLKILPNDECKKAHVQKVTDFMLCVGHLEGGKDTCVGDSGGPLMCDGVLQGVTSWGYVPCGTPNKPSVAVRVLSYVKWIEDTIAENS
T4 sequence (P06870 25-262): as above

| Compound | Menge des durch 1 NIH-Einheit Thrombin pro Min. freigesetzten Spaltproduktes R-NH2 in Nanomol (Humanthrombin) (Humanthrombin) | Menge des durch 1 ml Humanurin pro Min. freigesetzten Spaltproduktes R-NH2 in Nanomol (Urinkallikrein) (Urinkallikrein) | Menge des durch 1 CU-Einheit Humanplasmin pro Min. freigesetzten Spaltproduktes R-NH2 in Nanomol (Humanplasmin) (Humanplasmin) | Menge des durch 1 ml Humansputum pro Min. freigesetzten Spaltproduktes R-NH2 in Nanomol (Submandibularis-Kallikrein) [1] |
| --- | --- | --- | --- | --- |
| CC(C)C[C@@H](N)C(=O)N[C@@H](CC1CCCCC1)C(=O)N[C@@H](CCCNC(=N)N)C(=O)Nc1ccc([N+](=O)[O-])cc1 [Beispiel 36, 2HBr.H-D-Leu-CHA-Arg-pNA] (H-[dL]-[Cha]-Arg-pNA) | 6,8 Nanomol | 3,11 Nanomol | 1069 Nanomol | 35,9 Nanomol |
| NCCCC[C@H](NC(=O)[C@@H]1CCCN1C(=O)[C@H](N)CC1CCCCC1)C(=O)Nc1ccc([N+](=O)[O-])cc1 [Beispiel 29, 2AcOH.H-D-CHA-Pro-Lys-pNA] (H-[dCha]-Pro-Lys-pNA) | 4,54 Nanomol | 0,71 Nanomol | 639 Nanomol | 4,4 Nanomol |
| 2HBr.H-D-CHT-Tyr-Arg-pNA [Beispiel 45] | 9,5 Nanomol | 0,59 Nanomol | 1252 Nanomol | 10,9 Nanomol |
| N=C(N)NCCC[C@H](NC(=O)[C@H](Cc1ccc(O)cc1)NC(=O)[C@H](N)C1CCCCC1)C(=O)Nc1ccc([N+](=O)[O-])cc1 [Beispiel 42, 2HBr.H-D-CHG-Tyr-Arg-pNA] (H-[dChg]-Tyr-Arg-pNA) | 2,0 Nanomol | 0,49 Nanomol | 969 Nanomol | 3,9 Nanomol |
| N=C(N)NCCC[C@H](NC(=O)[C@H](Cc1ccccc1)NC(=O)[C@H](N)CC1CCCCC1)C(=O)Nc1ccc([N+](=O)[O-])cc1 [Beispiel 64, 2HBr.H-D-CHA-Phe-Arg-pNA] (H-[dCha]-Phe-Arg-pNA) | 25,8 Nanomol | 0,5 Nanomol | 1261 Nanomol | 9,7 Nanomol |
| N=C(N)NCCC[C@H](NC(=O)[C@@H]1CCCN1C(=O)[C@H](N)C1CCCCC1)C(=O)Nc1ccc([N+](=O)[O-])cc1 [Beispiel 27, 2HBr.H-D-CHG-Pro-Arg-pNA] (H-[dChg]-Pro-Arg-pNA) | 96,3 Nanomol | 0,33 Nanomol | 511 Nanomol | 12,9 Nanomol |
| CCCC[C@@H](N)C(=O)N[C@@H](CC1CCCCC1)C(=O)N[C@@H](CCCCN)C(=O)Nc1ccc([N+](=O)[O-])cc1 [Beispiel 74, 2HBr.H-D-Nleu-CHA-Lys-pNA] (H-[dNle]-[Cha]-Lys-pNA) | 3,9 Nanomol | 0,77 Nanomol | 695 Nanomol | 8,4 Nanomol |
| C[C@H](NC(=O)[C@H](N)CC1CCCCC1)C(=O)N[C@@H](CCCNC(=N)N)C(=O)Nc1ccc([N+](=O)[O-])cc1 [Beispiel 49, 2HBr.H-D-CHA-Ala-Arg-pNA] (H-[dCha]-Ala-Arg-pNA) | 163,5 Nanomol | 0,66 Nanomol | 389 Nanomol | 10,6 Nanomol |
